For eleven compounds, Ki results are on record in patent US20140206702A1, “IMIDAZOPYRIDINE COMPOUNDS, COMPOSITIONS AND METHODS OF USE” (Genentech, Inc., priority 2012, published 2014).

Like-named read-outs stand apart in the source and are kept apart here.

The term Ki denotes the equilibrium dissociation constant of an inhibitor or competing ligand from its target.

This assay deals with T1, TYK2 kinase domain (Homo sapiens, UniProt P29597).
T1 construct: The activity of the isolated JAK1, JAK2 or TYK2 kinase domain was measured
T1 sequence (P29597 897-1176 limits assumed): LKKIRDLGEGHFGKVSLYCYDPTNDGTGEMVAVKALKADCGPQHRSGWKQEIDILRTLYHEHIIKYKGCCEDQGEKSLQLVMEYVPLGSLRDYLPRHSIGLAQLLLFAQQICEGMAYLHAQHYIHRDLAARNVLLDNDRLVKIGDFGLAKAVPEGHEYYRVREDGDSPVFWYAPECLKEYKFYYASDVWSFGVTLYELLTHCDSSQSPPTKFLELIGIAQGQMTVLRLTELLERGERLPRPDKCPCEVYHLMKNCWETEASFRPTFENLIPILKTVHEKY
Briefly: JAK1, JAK2 and TYK2 Inhibition Assay Protocol (Caliper LabChip, isolated kinase domain). The assay is classed as biochemical. The note with it: 1 nM purified TYK2 enzyme, 25 uM ATP, Morrison tight binding model. How it is done: The activity of the isolated JAK1, JAK2 or TYK2 kinase domain was measured by monitoring phosphorylation of a peptide derived from JAK3 (Val-Ala-Leu-Val-Asp-Gly-Tyr-Phe-Arg-Leu-Thr-Thr) fluorescently labeled on the N-terminus with 5-carboxyfluorescein using the Caliper LabChip technology (Caliper Life Sciences, Hopkinton, Mass.). To determine the inhibition constants (Ki) of Examples 1-11, compounds were diluted serially in DMSO and added to 50 uL kinase reactions containing 1.5 nM JAK1, 0.2 nM purified JAK2 or 1 nM purified TYK2 enzyme, 100 mM Hepes pH7.2, 0.015% Brij-35, 1.5 uM peptide substrate, 25 uM ATP, 10 mM MgCl2, 4 mM DTT at a final DMSO concentration of 2%. Reactions were incubated at 22° C. in 384-well polypropylene microtiter plates for 30 minutes and then stopped by addition of 25 uL of an EDTA containing solution (100 mM Hepes pH 7.2, 0.015% Brij-35, 150 mM EDTA), resulting in a final EDTA concentration of 50 mM. After termination of the kinase reaction, the proportion of phosphorylated product was determined as a fraction of total peptide substrate using the Caliper LabChip 3000 according to the manufacturer's specifications. Ki values were then determined using the Morrison tight binding model. Morrison, J. F., Biochim. Biophys. Acta. 185:269-296 (1969); William, J. W. and Morrison, J. F., Meth. Enzymol., 63:437-467 (1979).

[1] abbreviates: read-out: Ki values for TYK2 inhibition.

Turning to `CNc1cc(Nc2nccc3nc(-c4c(Cl)cccc4C#N)[nH]c23)ncn1` [Example 6, 3-chloro-2-(4-(6-(methylamino)pyrimidin-4-ylamino)-3H-imidazo[4,5-c]pyridin-2-yl)benzonitrile], where the note is “Table 1, read-out: TYK2 Ki”, the Ki came out at 0.6 nM. Same read-out and setting: to `Cc1cc(Nc2nccc3nc(-c4c(Cl)cccc4C#N)[nH]c23)ncn1` [Example 3, 3-chloro-2-(4-(6-methylpyrimidin-4-ylamino)-3H-imidazo[4,5-c]pyridine-2-yl)benzonitrile] belongs 0.8 nM. For the compound `Cc1cc(Nc2nccc3nc(-c4c(C#N)cccc4C#N)[nH]c23)ncn1` [Example 7, 2-(4-(6-methylpyrimidin-4-ylamino)-3H-imidazo[4,5-c]pyridine-2-yl)isophthalonitrile], under setting [1], the Ki came out at 2.7 nM. For `N#Cc1cccc(Cl)c1-c1nc2ccnc(Nc3cc(CO)ncn3)c2[nH]1` [Example 5, 3-chloro-2-(4-(6-(hydroxymethyl)pyrimidin-4-ylamino)-3H-imidazo[4,5-c]pyridin-2-yl)benzonitrile], the Ki (Table 1, read-out: TYK2 Ki) stood at 0.8 nM.

`N#Cc1cccc(F)c1-c1nc2ccnc(Nc3cc(N)ncn3)c2[nH]1` [Example 1, 2-(4-(6-aminopyrimidin-4-ylamino)-3H-imidazo[4,5-c]pyridin-2-yl)-3-fluorobenzonitrile]: the Ki under setting [1] stood at 0.4 nM. In the case of `CNc1cc(Nc2nccc3nc(-c4c(F)cccc4C#N)[nH]c23)ncn1` [Example 8, 3-fluoro-2-(4-(6-(methylamino)pyrimidin-4-ylamino)-3H-imidazo[4,5-c]pyridin-2-yl)benzonitrile], the Ki (Table 1, read-out: TYK2 Ki) was 0.7 nM. Regarding `N#Cc1cccc(Cl)c1-c1nc2ccnc(NC(=O)C3CC3)c2[nH]1` [Example 10, N-(2-(2-chloro-6-cyanophenyl)-3H-imidazo[4,5-c]pyridin-4-yl)cyclopropanecarboxamide], the Ki (Table 1, read-out: TYK2 Ki) worked out at 1.3 nM. On the same count and under the same terms, to `N#Cc1cccc(F)c1-c1nc2ccnc(Nc3cc(CO)ncn3)c2[nH]1` [Example 9, 3-fluoro-2-(4-(6-(hydroxymethyl)pyrimidin-4-ylamino)-3H-imidazo[4,5-c]pyridin-2-yl)benzonitrile] belongs 2 nM; to `Cc1cc(Nc2nccc3nc(-c4c(F)cccc4C#N)[nH]c23)ncn1` [Example 4, 3-fluoro-2-(4-(6-methylpyrimidin-4-ylamino)-3H-imidazo[4,5-c]pyridine-2-yl)benzonitrile], 1 nM. As for `N#Cc1cccc(F)c1-c1nc2ccnc(NC(=O)C3CC3)c2[nH]1` [Example 11, N-(2-(2-cyano-6-fluorophenyl)-3H-imidazo[4,5-c]pyridin-4-yl)cyclopropanecarboxamide], the Ki under setting [1] is 6 nM. In the case of `N#Cc1cccc(Cl)c1-c1nc2ccnc(Nc3cc(N)ncn3)c2[nH]1` [Example 2, 2-(4-(6-aminopyrimidin-4-ylamino)-3H-imidazo[4,5-c]pyridine-2-yl)-3-chlorobenzonitrile], under “Table 1, read-out: TYK2 Ki”, the Ki amounted to 0.4 nM.
